Experimental data published in patent US20120245137A1 (Zalicus Pharmaceuticals Ltd., priority 2009, published 2012).
Like-named read-outs stand apart in the source and are kept apart here.

How the values were obtained:
[1] = target: Human Cav 2.2 channels (Homo sapiens, UniProt Q00975); experiment: Fluorescent assay for CaV2.2 channels using potassium depolarization (VIPR/FLIPR); assay type: cell-based; settings: FLIPR data
Description: Human Cav 2.2 channels were stably expressed in HEK293 cells along with alpha2-delta and beta subunits of voltage-gated calcium channels. An inwardly rectifying potassium channel (Kir2.3) was also expressed in these cells to allow more precise control of the cell membrane potential by extracellular potassium concentration. At low bath potassium concentration, the membrane potential is relatively negative, and is depolarized as the bath potassium concentration is raised. In this way, the bath potassium concentration can be used to regulate the voltage-dependent conformations of the channels. […] After the incubation period, Cav2.2 channel opening is triggered by addition of higher concentration of potassium (70 mM final concentration) to further depolarize the cell. The degree of state-dependent block can be estimated from the inhibitory potency of compounds after incubation in different potassium concentrations.
Calcium influx through Cav 2.2 channels is determined using a calcium sensitive fluorescent dye in combination with a fluorescent plate reader. Fluorescent changes were measured with either a VIPR (Aurora Instruments) or FLIPR (Molecular Devices) plate reader.
1. Seed cells in Poly-D-Lysine Coated 96 or 384-well plate and keep in a 3rC-IO % C02 incubator overnight.
2. Remove media, wash cells with 0.2 mL (96-well plate) or 0.05 mL (384-well plate) Dulbecco's Phosphate Buffered Saline (D-PBS) with calcium & magnesium (Invitrogen; 14040).
3. Add 0.1 mL (96-well plate) or 0.05 mL (384-well plate) of 4˜M fluor-4 (Molecular Probes; F-14202) and 0.02% Pluronic acid (Molecular Probes; P-3(00) prepared in D-PBS with calcium & magnesium (Invitrogen; 14040) supplemented with 10 mM Glucose & 10 mM HepeslNaOH; pH 7.4.
4. Incubate in the dark at 25° C. for 60-70 min.
5. Remove dye, wash cells with 0.1 mL (96-well plate) or 0.06 mL (384-well plate) of 4, 12, 25, or 30 mM Potassium Pre-polarization Buffer (PPB).
6. Add 0.1 mL (96-well plate) or 0.03 mL (384-well plate) of 4, 12, 25, 30 mM PPB with or without test compound.
7. Incubate in the dark at 25° C. for 30 min
8. Read cell plate on VIPR instrument, Excitation=480 nm, Emission=535 nm.
9. With VIPR continuously reading, add 0.1 mL (96-well plate) or 0.03 mL (384-well plate) of Depolarization Buffer (DB), which is 2× the final assay concentration, to the cell plate.

[2] = target: T-type calcium channel (Homo sapiens, UniProt O95180); experiment: T-type channel blocking, FLIPR data (Table 6); assay type: cell-based
Description: Another method, high-throughput spectrophotometric assay, utilizes loading of the cell lines with a fluorescent dye sensitive to intracellular calcium concentration and subsequent examination of the effects of compounds on the ability of depolarization by potassium chloride or other means to alter intracellular calcium levels.

[3] = closed state, read-out: CAv2.2 IC50 Closed
[4] = inactivated state, read-out: CAv2.2 IC50 Inact.
[5] = CAv3.2, closed state, read-out: CAv3.2 IC50 Closed
[6] = CAv3.2, inactivated state, read-out: CAv3.2 IC50 Inact.
[7] = CAv3.2, ratio closed/inactivated IC50

Chain of Human Cav 2.2 channels (Q00975 whole entry): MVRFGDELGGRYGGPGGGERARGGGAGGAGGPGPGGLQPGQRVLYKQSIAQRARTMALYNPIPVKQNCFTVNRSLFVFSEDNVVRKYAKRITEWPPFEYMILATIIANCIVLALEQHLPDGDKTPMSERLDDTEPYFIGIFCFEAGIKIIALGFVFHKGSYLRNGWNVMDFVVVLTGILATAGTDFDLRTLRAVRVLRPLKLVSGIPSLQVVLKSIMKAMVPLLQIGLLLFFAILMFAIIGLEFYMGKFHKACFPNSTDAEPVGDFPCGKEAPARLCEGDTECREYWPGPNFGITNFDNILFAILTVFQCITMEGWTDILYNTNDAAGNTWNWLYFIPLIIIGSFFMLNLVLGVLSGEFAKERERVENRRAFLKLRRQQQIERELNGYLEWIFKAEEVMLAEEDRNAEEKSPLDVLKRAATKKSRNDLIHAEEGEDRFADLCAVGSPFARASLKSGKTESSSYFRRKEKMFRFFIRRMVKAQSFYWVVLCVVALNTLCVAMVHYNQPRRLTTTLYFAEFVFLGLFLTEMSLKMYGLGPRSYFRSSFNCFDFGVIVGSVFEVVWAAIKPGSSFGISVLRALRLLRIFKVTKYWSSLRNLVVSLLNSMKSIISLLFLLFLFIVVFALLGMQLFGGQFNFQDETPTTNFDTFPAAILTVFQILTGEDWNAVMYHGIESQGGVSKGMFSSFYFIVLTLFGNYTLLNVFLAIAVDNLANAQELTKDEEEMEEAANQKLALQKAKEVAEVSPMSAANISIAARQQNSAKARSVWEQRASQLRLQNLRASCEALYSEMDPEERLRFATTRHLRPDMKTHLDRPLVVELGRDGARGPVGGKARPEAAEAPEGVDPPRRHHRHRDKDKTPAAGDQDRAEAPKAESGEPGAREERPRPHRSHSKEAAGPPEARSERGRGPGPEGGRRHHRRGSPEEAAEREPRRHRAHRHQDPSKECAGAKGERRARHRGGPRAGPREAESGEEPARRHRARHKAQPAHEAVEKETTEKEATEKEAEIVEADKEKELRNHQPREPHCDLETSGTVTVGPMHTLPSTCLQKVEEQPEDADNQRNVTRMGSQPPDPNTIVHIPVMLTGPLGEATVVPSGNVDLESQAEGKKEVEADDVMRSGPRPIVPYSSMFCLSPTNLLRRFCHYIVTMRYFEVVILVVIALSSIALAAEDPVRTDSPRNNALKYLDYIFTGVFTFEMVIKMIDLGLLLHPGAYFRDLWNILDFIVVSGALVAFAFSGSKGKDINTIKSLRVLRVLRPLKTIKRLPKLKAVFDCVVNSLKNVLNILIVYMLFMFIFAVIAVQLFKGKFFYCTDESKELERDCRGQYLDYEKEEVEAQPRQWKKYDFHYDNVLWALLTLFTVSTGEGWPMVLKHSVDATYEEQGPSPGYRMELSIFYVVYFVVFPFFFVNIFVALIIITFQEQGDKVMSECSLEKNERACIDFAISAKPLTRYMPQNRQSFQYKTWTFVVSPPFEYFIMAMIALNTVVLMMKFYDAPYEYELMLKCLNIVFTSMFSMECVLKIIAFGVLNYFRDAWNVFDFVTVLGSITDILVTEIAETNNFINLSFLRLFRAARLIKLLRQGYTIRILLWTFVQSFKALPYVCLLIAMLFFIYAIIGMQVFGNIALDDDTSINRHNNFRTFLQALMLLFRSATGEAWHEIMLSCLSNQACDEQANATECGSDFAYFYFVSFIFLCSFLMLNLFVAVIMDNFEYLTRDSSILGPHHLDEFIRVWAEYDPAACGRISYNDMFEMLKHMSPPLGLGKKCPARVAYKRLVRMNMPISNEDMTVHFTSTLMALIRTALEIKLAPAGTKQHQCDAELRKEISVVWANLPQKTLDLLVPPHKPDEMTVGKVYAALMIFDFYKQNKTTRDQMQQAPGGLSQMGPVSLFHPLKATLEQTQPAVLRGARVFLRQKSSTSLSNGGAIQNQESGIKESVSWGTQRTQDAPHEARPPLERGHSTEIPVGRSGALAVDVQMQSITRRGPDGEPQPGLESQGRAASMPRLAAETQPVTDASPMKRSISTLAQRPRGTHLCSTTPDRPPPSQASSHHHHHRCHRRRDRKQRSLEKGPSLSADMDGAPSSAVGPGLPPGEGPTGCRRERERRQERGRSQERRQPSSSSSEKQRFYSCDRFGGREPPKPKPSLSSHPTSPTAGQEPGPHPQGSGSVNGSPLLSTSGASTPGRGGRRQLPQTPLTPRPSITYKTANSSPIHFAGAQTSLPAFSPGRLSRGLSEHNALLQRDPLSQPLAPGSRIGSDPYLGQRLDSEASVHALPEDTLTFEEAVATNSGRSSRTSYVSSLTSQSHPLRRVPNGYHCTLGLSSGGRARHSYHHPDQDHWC
Chain of Human Cav 2.2 channels (P54289 25-1103 partner): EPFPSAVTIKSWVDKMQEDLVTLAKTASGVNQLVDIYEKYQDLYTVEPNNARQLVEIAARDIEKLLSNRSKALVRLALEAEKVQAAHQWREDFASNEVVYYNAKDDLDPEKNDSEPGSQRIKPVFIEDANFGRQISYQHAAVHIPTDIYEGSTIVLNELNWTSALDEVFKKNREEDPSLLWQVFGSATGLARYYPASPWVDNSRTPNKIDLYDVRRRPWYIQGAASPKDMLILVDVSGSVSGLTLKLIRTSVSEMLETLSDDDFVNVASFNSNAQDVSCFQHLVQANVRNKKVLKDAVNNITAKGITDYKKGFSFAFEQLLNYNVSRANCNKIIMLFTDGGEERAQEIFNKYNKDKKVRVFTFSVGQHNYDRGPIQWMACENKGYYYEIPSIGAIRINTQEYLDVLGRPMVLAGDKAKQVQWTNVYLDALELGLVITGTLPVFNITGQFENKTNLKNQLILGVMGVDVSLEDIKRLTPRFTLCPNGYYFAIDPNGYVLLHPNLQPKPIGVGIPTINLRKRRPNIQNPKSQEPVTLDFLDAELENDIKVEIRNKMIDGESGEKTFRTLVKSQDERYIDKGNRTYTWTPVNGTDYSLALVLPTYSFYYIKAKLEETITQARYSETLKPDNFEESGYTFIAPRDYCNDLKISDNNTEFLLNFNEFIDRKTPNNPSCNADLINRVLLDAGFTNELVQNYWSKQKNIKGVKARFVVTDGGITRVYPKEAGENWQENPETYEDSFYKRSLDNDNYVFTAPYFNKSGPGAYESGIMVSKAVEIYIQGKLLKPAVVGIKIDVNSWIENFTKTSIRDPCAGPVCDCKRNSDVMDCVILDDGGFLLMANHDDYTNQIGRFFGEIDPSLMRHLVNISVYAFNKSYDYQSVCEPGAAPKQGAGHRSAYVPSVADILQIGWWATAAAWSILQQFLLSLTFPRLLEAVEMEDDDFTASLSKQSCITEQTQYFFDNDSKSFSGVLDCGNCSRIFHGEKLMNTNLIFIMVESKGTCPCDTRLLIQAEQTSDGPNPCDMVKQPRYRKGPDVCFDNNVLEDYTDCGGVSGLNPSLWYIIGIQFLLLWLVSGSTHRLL
Chain of Human Cav 2.2 channels (P54284 whole entry partner): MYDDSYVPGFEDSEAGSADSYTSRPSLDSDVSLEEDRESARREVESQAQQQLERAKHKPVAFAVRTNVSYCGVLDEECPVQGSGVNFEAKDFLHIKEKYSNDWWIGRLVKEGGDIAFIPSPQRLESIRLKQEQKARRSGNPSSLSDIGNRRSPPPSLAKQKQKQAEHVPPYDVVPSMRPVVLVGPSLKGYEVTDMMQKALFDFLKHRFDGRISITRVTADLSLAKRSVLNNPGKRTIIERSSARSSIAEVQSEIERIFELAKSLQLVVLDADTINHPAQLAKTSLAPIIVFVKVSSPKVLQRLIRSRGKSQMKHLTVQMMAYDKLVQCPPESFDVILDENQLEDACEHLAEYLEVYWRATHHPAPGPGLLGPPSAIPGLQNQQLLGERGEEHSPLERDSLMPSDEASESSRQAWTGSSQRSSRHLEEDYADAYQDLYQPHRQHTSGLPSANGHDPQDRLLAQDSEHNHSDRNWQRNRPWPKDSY

Row | IC50 [1, 3] [µM] | IC50 [1, 4] [µM] | CAv2.2 IC50 Ratio closed/inact. ([1]; ratio closed/inactivated IC50) | IC50 [2, 5] [µM] | IC50 [2, 6] [µM] | CAv3.2 IC50 Ratio closed/inact. [2, 7] | CAv3.2 IC50 Ratio closed/inact. ([2]; CAv3.2, ratio closed/inact.) | CAv2.2 IC50 Ratio closed/inact. ([1]; ratio closed/inact.) | Compound
1 | 10 | 0.48 | 20.8 | ≥ 10 | 10 | 1 | – | – | CC(C)([C@H]1C[C@H](NC(=O)c2ccc(Cl)cc2S(C)(=O)=O)C1)S(=O)(=O)c1cccc(C(F)(F)F)c1 [Compound 679]
2 | 10 | – | – | – | 10 | – | – | – | N[C@@H]1CCCC[C@@H]1C(=O)NC[C@H]1C[C@H](S(=O)(=O)c2cc(F)cc(C(F)(F)F)c2)C1 (single isomer, unassigned) [Compound 707]
3 | – | – | – | – | 10 | – | – | – | N[C@H]1CCCC[C@@H]1C(=O)NC[C@H]1C[C@H](S(=O)(=O)c2cccc(OC(F)(F)F)c2)C1 [Compound 713]
4 | 10 | 1.31 | 7.6 | ≥ 10 | 10 | 1 | – | – | CC(C)([C@H]1C[C@H](NC(=O)c2ccc(S(C)(=O)=O)cc2Cl)C1)S(=O)(=O)c1cccc(C(F)(F)F)c1 [Compound 680]
5 | – | ≥ 10 | – | ≥ 10 | 10 | – | 1 | – | O=C(c1ccc(C(F)(F)F)cn1)N1CC(CS(=O)(=O)c2cc(F)cc(C(F)(F)F)c2)C1 [Compound 746]
6 | 8.95 | 0.79 | 11.3 | – | – | – | – | – | CC(C)([C@H]1C[C@H](NC(=O)c2ncc(C(F)(F)F)cn2)C1)S(=O)(=O)c1cccc(C(F)(F)F)c1 [Compound 678]
7 | 10 | ≥ 10 | – | – | 10 | – | – | 1 | N[C@@H]1CCCC[C@H]1C(=O)NC[C@H]1C[C@H](S(=O)(=O)c2cccc(Cl)c2)C1 [Compound 777]
8 | 3.36 | 1.05 | – | – | 10 | – | – | 3.2 | CC(C)(C[C@H]1C[C@H](NC(=O)[C@H]2CCCC[C@H]2N)C1)S(=O)(=O)c1cccc(C(F)(F)F)c1 [Compound 742]
9 | – | 9.88 | – | ≥ 10 | 10 | – | 1 | 1 | O=C(NC[C@H]1C[C@H](S(=O)(=O)c2cccc(Cl)c2)C1)c1cnc(C(F)(F)F)nc1 [Compound 773]
10 | – | 6.9 | 1.4 | – | – | – | – | – | Cc1nc(S(=O)(=O)N[C@H]2C[C@@H](C(C)(C)S(=O)(=O)c3cccc(C(F)(F)F)c3)C2)cn1C [Compound 631]
11 | 10 | 8.66 | 1.2 | – | – | – | – | – | Cc1nc(S(=O)(=O)N[C@H]2C[C@H](C(C)(C)S(=O)(=O)c3cccc(C(F)(F)F)c3)C2)cn1C [Compound 670]
12 | 10 | 1.29 | 7.8 | – | – | – | – | – | O=C(NC[C@H]1C[C@H](S(=O)(=O)c2cccc(C(F)(F)F)c2)C1)c1ncc(C(F)(F)F)cn1 [Compound 574]
13 | 3.55 | 1.25 | 2.8 | – | 10 | – | – | – | N[C@@H]1CCCC[C@@H]1C(=O)NC[C@H]1C[C@H](S(=O)(=O)c2cccc(OC(F)(F)F)c2)C1 (single isomer, unassigned) [Compound 700]
14 | 10 | 9.37 | – | – | 10 | – | – | 1.1 | NC1(CC(=O)NC[C@H]2C[C@H](S(=O)(=O)c3cccc(Cl)c3)C2)CCCCC1 [Compound 776]
15 | 8.87 | 1.19 | 7.5 | – | 10 | – | – | – | CC(C)([C@H]1C[C@@H](NC(=O)CC2(N)CCCCC2)C1)S(=O)(=O)c1cccc(C(F)(F)F)c1 [Compound 652]
16 | – | ≥ 10 | – | – | 10 | – | – | – | N[C@H]1CCCC[C@H]1C(=O)NC[C@H]1C[C@H](S(=O)(=O)c2cccc(Cl)c2)C1 [Compound 778]
